According to patent US9029414B2, “Triterpenoid compounds and methods of use thereof” (Biotechnology Research Corporation, priority 2008, dated 2015):

Legend:
cortical neurons = test: Cortical neuron survival assay against glutamate excitotoxicity (LDH); type: cell-based, Sprague-Dawley rats; details: 30 μM 24 hrs, glutamate 10-200 μM 20 min; at high concentrations of glutamate
Experimental: Hippocampal neurons/cortical neurons were prepared from embryonic day 18 Sprague-Dawley rats. After the cortices had been removed from the brain, isolated cells were plated onto Poly d-Lysine (PDL) (P0899, Sigma)-coated 48 well plates (150687, NUNC) at a density of 2×10^5 cell per well using Neurobasal Medium (NB) (21103-049, Gibco) with B27 supplement (17504-044, Gibco), penicillin/streptomycin (15140, Gibco) and 1 mM L-glutamine (25030, Gibco). The cell culture was incubated at 37° C. in a humidified atmosphere of 5% CO2 in air. Medium was changed to growth medium (Neurobasal Medium with penicillin/streptomycin and B27 supplement) after 3 hours. Half medium was changed with growth medium every 2-3 days to maintain the cells until day 10 in vitro (DIV 10). Serial dilutions of samples were prepared in growth medium and DMSO was used as vehicle control. For pre-treating assay, half of the medium was removed from wells, and equal amount of diluted samples were replaced. Cells were then incubated for 2 hours at 37° C. in a humidified atmosphere of 5% CO2 in air. […] Afterwards, cells were incubated in growth medium for 18-24 hours and detected with Cytotoxicity Detection Kit (1644793, Roche).
Cortical neurons were pre-treated with DA021 or DA034 and subsequently subjected to varying concentrations of glutamate (10-200 μM). […] LDH release into the medium was then measured.

[1] = tested on: MOG-induced IL-6 in primary splenocytes; test: IL-6 Quantikine ELISA in primary splenocytes of EAE mice; type: cell-based; details: exogenous compound 30 μM; for amount of IL-6 in response to exogenous compound: splenocytes of compound-treated EAE mice (100 mg/kg); for reduction in the amount of MOG-induced IL-6: splenocytes of vehicle-treated EAE mice, MOG 25 μg/mL, 48 hrs
Experimental: On day 21, EAE mice were sacrificed by cervical dislocation and spleens were removed aseptically. The removed spleens were then cut with sterilized scissors and strained through […] mesh (BD Bioscience) with a plunger of 5 mL syringe (BD Bioscience) in 9 mL of RPMI 1640 (Invitrogen) with 100 U/mL penicillin and 100 μg/mL streptomycin (Sigma). The cell mixture was then added to 9 mL of Lympholyte (Cedarlane Laboratories) for gradient separation of splenocytes from red bloods cells by centrifugation at 1500 g for 20 min. After the centrifugation, the lympholyte layer containing splenocytes were carefully removed and washed with 10 mL of RPMI 1640 at 800 g for 10 min for three times. The isolated splenocytes were seeded onto different plate format and cultured with RPMI 1640 medium (Invitrogen) supplement with 10% heat inactivated fetal bovine serum (Invitrogen) and 100 U/mL penicillin and 100 μg/mL streptomycin at 37° C. CO2 incubator.
Splenocytes from EAE mice were cultured at the density of 1×10^6 cells in 12-well plates (Falcon) in the absence or presence of the MOG peptide (25 μg/mL) (Hooke Laboratories), DA001 and DA021 (30 μM) with RPMI 1640 medium (Invitrogen) supplement with 10% heat inactivated fetal bovine serum (Invitrogen) and 100 U/mL penicillin and 100 μg/mL streptomycin (Sigma) for 48 h. After 48 h, the supernatants were collected by pelleting the cells at 300 g for 10 min at 4° C. 50 μL of the each sample was added to the microtiter plate provided by the manufacturer of the Quantikine ELISA assay kit (R and D systems). Additional 50 μL of assay diluents buffer was added and incubated at room temperature for 2 h. After the incubation, the supernatants were discarded and the cells were washed with wash buffer. […] Subsequently, 100 μL of stop solution was added to each well and the plate was read in 450 nm wavelength on a microplate reader (Dynex Revelation 2.2).
Cells were cultured in RPMI 1640 medium supplement with 10% heat inactivated fetal bovine serum and penicillin/streptomycin, in the absence or presence of MOG (25 μg/mL, Ex) with or without DA001 or DA021 (30 μM, Ex). […] The amount of IL-6 was calculated based on the standard curve established during the assay. […]
Cells were cultured in RPMI 1640 medium supplement with 10% heat inactivated fetal bovine serum and penicillin/streptomycin, in the absence or presence of MOG (25 μg/mL, Ex) with or without DA001 (30 μM, Ex). […] The amount of IL-6 was calculated based on the standard curve established during the assay. […]
Cells were cultured in RPMI 1640 medium supplement with 10% heat inactivated fetal bovine serum and penicillin/streptomycin, in the absence or presence of MOG (25 μg/mL, Ex) with or without DA021 (30 μM, Ex). […] The amount of IL-6 was calculated based on the standard curve established during the assay. […]

| Structure (SMILES) | cell death (LDH release) vs DMSO control (cortical neurons) | amount of IL-6 in response to exogenous compound [1] | reduction in the amount of MOG-induced IL-6 [1] [%] |
| --- | --- | --- | --- |
| CC(=O)OC[C@]12CC[C@@H](C3(C)CO3)C1C1CCC3[C@@]4(C)CC[C@H](O)[C@@](C)(CO)[C@@H]4CC[C@@]3(C)[C@]1(C)CC2 (stereo partly drawn) [DA034] | significant reduction in cell death | – | – |
| C=C(C)[C@@H]1CC[C@]2(C(=O)O)CC[C@]3(C)C(CC[C@@H]4[C@@]5(C)CC[C@H](O[C@@H]6OC[C@H](O)[C@H](O)[C@H]6O[C@@H]6O[C@@H](C)[C@H](O)[C@@H](O)[C@H]6O)[C@@](C)(CO)[C@@H]5CC[C@]43C)[C@@H]12 (stereo partly drawn) [DA001, 3-O-[α-L-rhamnopyranosyl-(1→2)-α-L-arabinopyranosyl]-3,23-dihydroxy-20(29)-lupen-28-oic acid] | – | markedly decreased | 73 |
| C=C(C)[C@@H]1CC[C@]2(/C=N/O)CC[C@]3(C)C(CCC4[C@@]5(C)CCC(=O)[C@@](C)(CO)[C@@H]5CC[C@]43C)C12 (stereo partly drawn) [DA021] | significant reduction in cell death | markedly decreased | 79 |
